The values below come from patent US9339509B2, “Methods of use to orally and topically treat acne and other skin conditions by administering a 19-nor containing vitamin D analog with or without a retinoid” (Wisconsin Alumni Research Foundation, priority 2006, dated 2016).

“Also recorded” adds a separate entry of the source.

Experiment [1] relates to Rhino mouse. Description: Comedolytic effect of oral administration to the Rhino mouse (comedone area). Type of experiment: in vivo. The source says: (§1) Rhino mice were used to topically and orally test the compounds and compositions of the invention. The Rhino mouse is a well-established animal model used to study the comedolytic effects of anti-acne agents including retinoids. (See Boulcier M et al., Experimental Models in Skin Pharmacology, 1990, In Pharmacological Reviews 42:127-15). Mirshahpanah and Maibach, 2007, Cutaneous and Ocular Toxicology 26:195-202). The Rhino mouse model was used to study the therapeutic potential of 2-Methylene-19-nor-20(S)-1α-hydroxy-bishomopregnacalciferol (2MBisP), 19-Nor-26,27-dimethylene-20(S)-2-methylene-1α,25-dihydroxyvitamin D3 (CAGE-3), NEL, 24R-2MD2, Vit-III (17-20E), 2MPregna, 2MP, 20R-2MbisP, 2MTrisP, FF-44, FF-55, HPBS, VD-03 and atRA.
(§2) Animals and dose administration. Rhino mice 6-10 weeks old were dosed via the oral and/or topical route. In the majority of studies, the mice were dosed daily. In one topical study, the efficacy of daily versus intermittent (Monday/Wednesday/Friday) dosing was compared. The mice were weighed three times per week and doses were adjusted weekly based on body weight. The topical formulations were applied to the back of the animal in a maximum volume of 110 μL. The topical formulations were made by mixing the APIs with a topical carrier comprising 70 vol % propylene glycol and 30 vol % ethanol or 30 vol % propylene glycol and 70 vol % ethanol, as indicated. The topical vehicle control was the vehicle carrier solution matched to the formulation containing API and vehicle carrier.
(§3) The oral formulation was made by mixing the APIs with Wesson® soybean oil or NeoBee® oil. The oral dose was delivered to the back of the mouth of each mouse. Mice were sacrificed 4 hours after the final oral dose and 72 hours after the final topical dose. At sacrifice, the dorsal skin was collected for histological studies.
(§4) Comedolytic effect. The extent of the comedolytic effect (i.e., efficacy) was assessed by measuring the average area of the comedones, whereby the smaller the area, the larger the effect. The comedone area was determined by histological analysis of tissue sections based on a method developed in our lab (see FIG. 2). Skin was fixed overnight in 4% paraformaldehyde at 4 deg. C. with gentle agitation and dehydrated the next day into 100% methanol. Samples were embedded in paraffin and a total of nine 10 micron sections 150 microns apart were prepared from each Rhino mouse. Five of the nine sections were digitally imaged (6× magnification) for comedone analysis using Metamorph Imaging Software (trace function). The perimeter of each comedone on the images taken from the 5 sections was then traced using a Wacom Intuos 3 Graphics Tablet interfaced with the software. The number of pixels comprising the area of each individual comedone was obtained and transferred to an Excel spreadsheet, and the mean number of pixels per comedone was obtained for each Rhino mouse. For comedones that were completely healed (area=0) a pixel value approaching 0 (<10) was entered into the spreadsheet. The individual comedone area average for each mouse was then used to calculate the treatment group mean. Results in the figures are expressed in terms of mean±standard error of the mean.
Preparation of oral dosing solutions containing 2MBisP, CAGE-3, 24R-2MD2, VitIII (17-20E) and NEL. Separate concentrated stocks of 2MBisP, CAGE-3, 24R-2MD2, VitIII (17-20E) and NEL were obtained in ethanol. The concentration was determined spectrophotometrically using a molar extinction coefficient=42,000 and a λmax=252.7. […] The final dose was delivered in ≦50 μL of oil.
Preparation of oral atRA dosing formulation. A concentrated stock solution containing atRA was prepared in dichloromethane. The atRA concentrated stock solution was diluted into ethanol. The concentration of atRA in that diluted stock solution was determined spectrophotometrically, whereby the molar extinction coefficient=45,200 and λmax=350. The purity of atRA was determined to be >99% by HPLC. […]

Experiment [2] has as its system Rhino mouse. Description: Combination of oral atRA and topical 2MBisP in the Rhino mouse (comedone area, skin morphology). Type of experiment: in vivo. Here is the method:
as §2, §3
as §4, with “the mean. […]” for “the mean.”
Preparation of oral atRA dosing formulation. […] The concentration of atRA in that diluted stock solution was determined spectrophotometrically, whereby the molar extinction coefficient=45,200 and λmax=350. The purity of atRA was determined to be >99% by HPLC. […]

Experiment [3] concerns Rhino mouse. Description: Comedolytic effect of topical application to the Rhino mouse (comedone area). Type of experiment: in vivo. The note with it: for comedone area (FIG. 5): 30 vol % ethanol/70% propylene glycol; for comedone area relative to vehicle-treated group (FIG. 11): 72 h after final dose.
Excerpt: as §1, §2, §3, §4
Preparation of topical formulations containing 2MBisP, CAGE-3, 24R-2MD2, VitIII (17-20E), NEL, VD-03, 2MPregna, 2MP, 20R-2MBisP, 2MTrisP, FF-44, FF-55, and HPBS. Separate concentrated ethanolic stocks of 2MBisP, CAGE-3, 24R-2MD2, VitIII (17-20E) and NEL were diluted to a final concentration containing 70 vol % propylene glycol and 30 vol % ethanol or 30 vol % propylene glycol and 70 vol % ethanol as the excipient carrier system. The mixture was thoroughly mixed. The topical dosing formulation delivered the desired dosing amount of drug on a per kilogram body weight basis. A dose ranging from 100-110 μL in volume was administered to the back of the mouse. An average weight of 24 or 30 g/mouse was assumed in dose volume calculations. […]

Experiment [4] has as its system retinoic acid receptors (RARs). The note with it: Repa J J et al., 1993; cited from earlier work.
The mark [5] stands for this setting: daily topical 3 weeks, 70 vol % ethanol/30 vol % propylene glycol, 220 nmole/kgBW/day.

As for `C=C1[C@H](O)CC(=C/C=C2\CCC[C@]3(C)C([C@@H](C)CC)CC[C@@H]23)C[C@H]1O` (stereo partly drawn) [2MBisP, 2-methylene-19-nor-20(S)-1α-hydroxy-bishomopregnacalciferol], the “comedone area (FIG. 12)” value in the experiment on Rhino mouse [1] (oral daily 24 days, 522 nmole/kgBW/day) is on record as “reduction in the comedone area”. Besides, the “comedone area vs vehicle control group (FIG. 15)” value in the experiment on Rhino mouse [2] (2MBisP alone topically 21 days (0.22 μmole/kgBW/day, 30 vol % ethanol/70 vol % propylene glycol) with oral vehicle 24 days) is “lacked significant efficacy”. In addition, in the experiment on Rhino mouse [2] (female Rhino mice, 2MBisP alone topically 0.22 μmole/kgBW/day, 30% ethanol/70% propylene glycol), the “skin morphology, H&E sections (FIG. 16)” value was “did not alter skin morphology significantly”. Further, the response vs control in vivo at 0.022 µmol/kg in the experiment on Rhino mouse [3] (Mus musculus, 504 h, daily topical ca. 3 weeks, 70 vol % ethanol/30 vol % propylene glycol, dose 22 nmol/kg, mean ± SEM, read-out: Comedone Area (% Vehicle)) came out at 97 ± 9%. The response vs control in vivo at 0.069 µmol/kg in the experiment with Rhino mouse [3] (Mus musculus, 504 h, daily topical ca. 3 weeks, 70 vol % ethanol/30 vol % propylene glycol, dose 69 nmol/kg, mean ± SEM, read-out: Comedone Area (% Vehicle)) is 127 ± 12%. Besides, the response vs control in vivo at 0.217 µmol/kg in the experiment with Rhino mouse [3] (Mus musculus, 504 h, daily topical ca. 3 weeks, 70 vol % ethanol/30 vol % propylene glycol, dose 217 nmol/kg, mean ± SEM, read-out: Comedone Area (% Vehicle)) was 49 ± 3%. Besides, the response vs control in vivo at 0.694 µmol/kg in the experiment on Rhino mouse [3] (Mus musculus, 504 h, daily topical ca. 3 weeks, 70 vol % ethanol/30 vol % propylene glycol, dose 694 nmol/kg, mean ± SEM, read-out: Comedone Area (% Vehicle)) turned out to be 35 ± 4%. Also, the response vs control in vivo at 2.187 µmol/kg in the experiment on Rhino mouse [3] (Mus musculus, 504 h, daily topical ca. 3 weeks, 70 vol % ethanol/30 vol % propylene glycol, dose 2187 nmol/kg, mean ± SEM, read-out: Comedone Area (% Vehicle)) was determined as 32 ± 7%. Further, the “comedone area (FIG. 5)” value with Rhino mouse [3] (daily topical 3 weeks, 220 nmole/kgBW/day) is listed as “no effect”; with Rhino mouse [3] (daily topical 3 weeks, 653 nmole/kgBW/day), “near-maximal reduction in comedone area”. Moreover, the “comedone area (FIG. 7)” value in the experiment with Rhino mouse [3] (daily topical 3 weeks, 70 vol % ethanol/30 vol % propylene glycol, 22 nmole/kgBW/day) is given as “no effect”; in the experiment with Rhino mouse [3] (setting [5]) it was “significant reduction in comedone area”. Besides, the “comedone area relative to vehicle-treated group (FIG. 8, 9, 10)” value in the experiment on Rhino mouse [3] (daily topical 3 weeks, 70 vol % ethanol/30 vol % propylene glycol, 217 nmole/kgBW/day) is “significant reduction in comedone area”. In addition, in the experiment on Rhino mouse [3] (setting [5]), the “reduction in comedone area (FIG. 6)” value is listed as greater than 50%. Besides, the “comedone area (FIG. 6)” value with Rhino mouse [3] (daily topical 3 weeks, 70 vol % ethanol/30 vol % propylene glycol, 653 nmole/kgBW/day) is “greater reduction in comedone area as compared to the lower dose”. Besides, the “comedone area relative to vehicle-treated group (FIG. 8)” value in the experiment with Rhino mouse [3] (daily topical 3 weeks, 70 vol % ethanol/30 vol % propylene glycol, 694 nmole/kgBW/day) is recorded as “significant reduction in comedone area”. Further, the “comedone area relative to vehicle-treated group (FIG. 11)” value with Rhino mouse [3] (topical 217 nmole/kgBW daily (total of 22 doses), 70 vol % ethanol/30 vol % propylene glycol) is listed as “significant reduction in comedone area”; in the experiment with Rhino mouse [3] (topical 217 nmole/kgBW intermittently Monday, Wednesday, Friday (total of 10 doses), 70 vol % ethanol/30 vol % propylene glycol), “significant reduction in comedone area”. Besides, in the experiment on Rhino mouse [3] (topical 3 weeks, 30 vol % ethanol/70 vol % propylene glycol, 5.4 μg/day (ca. 800 nmole/kgBW/day)), the “comedone area vs vehicle control (FIG. 3, FIG. 4)” value is given as “reduction in the comedone area; also recorded: reduced comedone area”. Moreover, the “potency in the reduction of comedone area relative to 20R-2MBisP” value with Rhino mouse [3] (topical, 70 vol % ethanol/30 vol % propylene glycol, more potent than the 20R compound) was “approximately ½”.
As to `CC1=C(/C=C/C(C)=C/C=C/C(C)=C\C(=O)O)C(C)(C)CCC1` [13-cis retinoic acid, 13-cis-retinoic acid], the “binding to the RARs” value in experiment [4] was “does not bind”.
In the case of `C=C1[C@H](O)CC(=C/C=C2\CCC[C@]3(C)/C(=C(\C)CCCC(C)(C)O)CC[C@@H]23)C[C@H]1O` [VitIII (17-20E), 2-methylene-1α,25-dihydroxy-(17E)-17(20)-dehydro-19-nor-vitamin D3], in the experiment on Rhino mouse [1] (oral daily 24 days, 24 nmole/kgBW/day), the “comedone area (FIG. 13)” value is given as “no significant reduction in comedone area”. In addition, the response vs control in vivo at 0.024 µmol/kg in the experiment with Rhino mouse [3] (Mus musculus, 504 h, daily topical ca. 3 weeks, 70 vol % ethanol/30 vol % propylene glycol, dose 24 nmol/kg, mean ± SEM, read-out: Comedone Area (% Vehicle)) came out at 116 ± 15%.
Regarding `CC1=C(/C=C/C(C)=C/C=C/C(C)=C/C(=O)O)C(C)(C)CCC1` [atRA, all-trans-retinoic acid, reference compound], the “comedone size vs vehicle control (FIG. 2)” value was “insignificant reduction in comedone size” in the experiment with Rhino mouse [1] (oral, 3 weeks, 0.83 μmole/kgBW) and “maximal reduction in comedone size” in the experiment with Rhino mouse [1] (oral, 3 weeks, 16.6 μmole/kgBW). For the same compound, the “comedone area, dose dependence (FIG. 2)” value with Rhino mouse [1] (oral, 3 weeks, various doses) is “dose-dependent reduction in comedone area”. For the same compound, the “comedone area vs vehicle control group (FIG. 15)” value in the experiment with Rhino mouse [2] (atRA alone orally 24 days (830 nmole/kgBW/day) with topical vehicle 21 days) is reported as “lacked significant efficacy”. The “skin morphology vs vehicle control, H&E sections (FIG. 16)” value in the experiment on Rhino mouse [2] (female Rhino mice, atRA alone orally 830 nmole/kgBW/day in soybean oil) was “did not alter skin morphology significantly”.
